Laboratory results reported in patent US9155760B2, “Method of prophylaxis of bacterial vaginosis” (STARPHARMA PTY LIMITED, priority 2011, dated 2015).
Converted amounts (≈) assume the structure as drawn. Where two headings read alike, the source gives them in different places. Values belong to the compound of their own block, whether it stands above or below them.

Experiments:
Lactobacillus gasseri = test: Agar dilution MIC assay (anaerobes); assay type: cell-based; settings: Micromyx Number 4148, 35° C., 48 hours, anaerobic
Porphyromonas levii = test: Agar dilution MIC assay (anaerobes); assay type: cell-based; settings: Micromyx Number 3003, 35° C., 48 hours, anaerobic
Bacteroides ureolyticus = test: Agar dilution MIC assay (anaerobes); assay type: cell-based; settings: Micromyx Number 4150, 35° C., 48 hours, anaerobic
[1] = tested on: Porphyromonas asaccharolytica; test: Agar dilution MIC assay (anaerobes); assay type: cell-based; settings: Micromyx Number 3004, 35° C., 48 hours, anaerobic
[2] = tested on: Lactobacillus acidophilus; test: Agar dilution MIC assay (anaerobes); assay type: cell-based; settings: Micromyx Number 0681, 35° C., 48 hours, anaerobic
B. ovatus 3508 = test: Agar dilution MIC assay (anaerobes); assay type: cell-based, Bacteroides ovatus; settings: Micromyx Number 3508, 35° C., 48 hours, anaerobic
Anaerococcus prevotii = test: Agar dilution MIC assay (anaerobes); assay type: cell-based; settings: Micromyx Number 4151, 35° C., 48 hours, anaerobic
Lactobacillus plantarum = test: Agar dilution MIC assay (anaerobes); assay type: cell-based; settings: Micromyx Number 2791, 35° C., 48 hours, anaerobic
[3] = tested on: Peptostreptococcus anaerobius; test: Agar dilution MIC assay (anaerobes); assay type: cell-based; settings: Micromyx Number 3526, 35° C., 48 hours, anaerobic
[4] = tested on: Bacteroides fragilis 0123 (ATCC 25285); test: Agar dilution MIC assay (anaerobes), quality control organism; assay type: cell-based; settings: 48 hours, anaerobic
Prevotella bivia = test: Agar dilution MIC assay (anaerobes); assay type: cell-based; settings: Micromyx Number 3447, 35° C., 48 hours, anaerobic
Anaerococcus tetradius = test: Agar dilution MIC assay (anaerobes); assay type: cell-based; settings: Micromyx Number 4152, 35° C., 48 hours, anaerobic
[5] = tested on: Prevotella melaninogenica; test: Agar dilution MIC assay (anaerobes); assay type: cell-based; settings: Micromyx Number 3005, 35° C., 48 hours, anaerobic
Lactobacillus casei = test: Agar dilution MIC assay (anaerobes); assay type: cell-based; settings: Micromyx Number 1722, 35° C., 48 hours, anaerobic
Mobiluncus. curtisii = test: Agar dilution MIC assay (anaerobes); assay type: cell-based; settings: Micromyx Number 4145, 35° C., 48 hours, anaerobic
Bacteroides ovatus 3503 = test: Agar dilution MIC assay (anaerobes); assay type: cell-based; settings: Micromyx Number 3503, 35° C., 48 hours, anaerobic
Mobiluncus mulieris = test: Agar dilution MIC assay (anaerobes); assay type: cell-based; settings: Micromyx Number 4146, 35° C., 48 hours, anaerobic
Lactobacillus crispatus = test: Agar dilution MIC assay (anaerobes); assay type: cell-based; settings: Micromyx Number 4147, 35° C., 48 hours, anaerobic
Lactobacillus jensenii = test: Agar dilution MIC assay (anaerobes); assay type: cell-based; settings: Micromyx Number 4149, 35° C., 48 hours, anaerobic
Gardnerella vaginalis = test: Agar dilution MIC assay (anaerobes); assay type: cell-based; settings: Micromyx Number 4153, 35° C., 48 hours, anaerobic
Prevotella intermedia = test: Agar dilution MIC assay (anaerobes); assay type: cell-based; settings: Micromyx Number 3002, 35° C., 48 hours, anaerobic
[6] = tested on: Bacteroides fragilis 3374; test: Agar dilution MIC assay (anaerobes); assay type: cell-based; settings: Micromyx Number 3374, 35° C., 48 hours, anaerobic
Fusobacterium nucleatum = test: Agar dilution MIC assay (anaerobes); assay type: cell-based; settings: Micromyx Number 1269, 35° C., 48 hours, anaerobic
[7] = Bacteroides ovatus, read-out: MIC

MIC (Lactobacillus gasseri; Lactobacillus gasseri, read-out: MIC): 0.25 µg/mL (≈ 0.835 µM) | MIC (Porphyromonas levii; Porphyromonas levii, read-out: MIC): 0.06 µg/mL (≈ 0.2 µM) | MIC (Bacteroides ureolyticus; Campylobacter ureolyticus, read-out: MIC): 0.25 µg/mL (≈ 0.835 µM) | MIC ([1]; Porphyromonas asaccharolytica, read-out: MIC): ≤ 0.03 µg/mL | MIC ([2]; Lactobacillus acidophilus, read-out: MIC): 0.12 µg/mL (≈ 0.401 µM) | MIC (B. ovatus 3508; [7]): ≤ 0.03 µg/mL | MIC (Anaerococcus prevotii; Anaerococcus prevotii, read-out: MIC): 0.06 µg/mL (≈ 0.2 µM) | MIC ([3]; Peptostreptococcus anaerobius, read-out: MIC): ≤ 0.03 µg/mL | MIC ([4]; Bacteroides fragilis, ATCC25285, Micromyx Number 0123, 35° C., read-out: MIC): 0.12 µg/mL (≈ 0.401 µM) | MIC (Prevotella bivia; Prevotella bivia, read-out: MIC): ≤ 0.03 µg/mL | MIC (Anaerococcus tetradius; Anaerococcus tetradius, read-out: MIC): ≤ 0.03 µg/mL | MIC ([5]; Prevotella melaninogenica, read-out: MIC): ≤ 0.03 µg/mL | MIC (Lactobacillus casei; Lacticaseibacillus casei, read-out: MIC): 0.5 µg/mL (≈ 1.67 µM) | MIC (Mobiluncus. curtisii; Mobiluncus curtisii, read-out: MIC): ≤ 0.03 µg/mL | MIC (Bacteroides ovatus 3503; [7]): 0.25 µg/mL (≈ 0.835 µM) | MIC (Mobiluncus mulieris; Mobiluncus mulieris, read-out: MIC): ≤ 0.03 µg/mL | MIC (Lactobacillus crispatus; Lactobacillus crispatus, read-out: MIC): 0.12 µg/mL (≈ 0.401 µM) | MIC (Lactobacillus jensenii; Lactobacillus jensenii, read-out: MIC): 0.25 µg/mL (≈ 0.835 µM) | MIC (Gardnerella vaginalis; Gardnerella vaginalis, read-out: MIC): 0.12 µg/mL (≈ 0.401 µM) | MIC (Prevotella intermedia; Prevotella intermedia, read-out: MIC): ≤ 0.03 µg/mL | MIC ([6]; Bacteroides fragilis, read-out: MIC): 2 µg/mL (≈ 6.68 µM) | MIC (Fusobacterium nucleatum; Fusobacterium nucleatum, read-out: MIC): ≤ 0.03 µg/mL
SMILES: C[C@@H](O)[C@H]1C(=O)N2C(C(=O)O)=C(SCCN=CN)C[C@H]12 [Imipenem, reference compound]
MIC (Lactobacillus plantarum; Lactiplantibacillus plantarum, read-out: MIC): 2 µg/mL (≈ 6.68 µM)

MIC (Lactobacillus gasseri): >30000 µg/mL | MIC (Porphyromonas levii): >30000 µg/mL | MIC (Bacteroides ureolyticus): >30000 µg/mL | MIC [1]: >30000 µg/mL | MIC [2]: >30000 µg/mL | MIC (B. ovatus 3508): 30000 µg/mL (≈ 83200 µM) | MIC (Anaerococcus prevotii): >30000 µg/mL | MIC [3]: >30000 µg/mL | MIC ([4]; Micromyx Number 0123, 35° C.): >30000 µg/mL | MIC (Prevotella bivia): 30000 µg/mL (≈ 83200 µM) | MIC (Anaerococcus tetradius): >30000 µg/mL | MIC [5]: >30000 µg/mL | MIC (Lactobacillus casei): >30000 µg/mL | MIC (Mobiluncus. curtisii): >30000 µg/mL | MIC (Bacteroides ovatus 3503): >30000 µg/mL | MIC (Mobiluncus mulieris): >30000 µg/mL | MIC (Lactobacillus crispatus): 10000 µg/mL (≈ 27700 µM) | MIC (Lactobacillus jensenii): >30000 µg/mL | MIC (Gardnerella vaginalis): 5000 µg/mL (≈ 13900 µM) | MIC (Prevotella intermedia): >30000 µg/mL | MIC [6]: >30000 µg/mL | MIC (Fusobacterium nucleatum): >30000 µg/mL
SMILES: CC(=O)COc1cc(S(=O)(=O)O)cc2cc(S(=O)(=O)O)ccc12 [SPL7013]
MIC (Lactobacillus plantarum): >30000 µg/mL
